Values of other authors, collected in patent publication US20250129016A1, “[…] FOR RADI[…] ARENES AND USE THEREOF” (THE UNIVERSITY OF NORTH CAROLINA AT CHAPEL HILL, priority 2023, published 2025).

Details: previously reported

In the case of `COc1cc2c(c(OC)c1OC)-c1ccc(OC)c(=O)cc1[C@@H](NC(C)=O)CC2` [39a, Colchicine], the route of excretion is listed as “excreted primarily through the biliary system, intestines, and kidneys”.
